From patent US20070197591A1, “USE OF PALIPERIDONE FOR THE TREATMENT OF A MENTAL DISORDER IN A PSYCHIATRIC PATIENT WITH REDUCED HEPATIC FUNCTION” (priority 2005, published 2007)
Like-named read-outs stand apart in the source and are kept apart here.

Assay: Single-dose pharmacokinetics of IR paliperidone in subjects with moderate hepatic impairment vs normal hepatic function
Type: in vivo, human
Conditions: for CL renal / AUC(0-inf) / half-life / Tmax / Cmax: both sexes, human, 1 mg; for CL renal: plasma and urine; for AUC(0-inf) / half-life / Tmax / Cmax: plasma; for half-life: read-out: t1/2 (terminal half-life) (converted); for Tmax: read-out: tmax, median (range); for Ae, % dose: urine
Excerpt: Objectives: The primary objective of this study was to investigate the single-dose pharmacokinetics of immediate-release (IR) paliperidone, after oral administration, in subjects having moderate hepatic impairment (“hepatically-impaired subjects”) compared with subjects having normal hepatic function (“healthy subjects”). The secondary objective was to document the plasma protein binding and disposition of the enantiomers of paliperidone. In addition, the tolerability and safety profile of IR paliperidone was compared between hepatically impaired subjects and healthy subjects. Methodology: This was a single-dose, parallel-group, open-label, single-center, Phase I study of IR paliperidone in subjects having either normal or moderately impaired hepatic function. The groups, consisting of 10 subjects each, were demographically matched with respect to age, weight, sex, and ethnicity. The study consisted of a screening period of up to 3 weeks and an open-label, single-dose treatment period (Days 1 through 5). On Day 1, a single dose of 1 mg IR paliperidone oral solution was administered after a fast of at least 10 hours; subjects continued to fast for 4 hours following study drug administration. The 96-hour follow-up consisted of serial sample collection of blood and urine for pharmacokinetic analysis and safety and tolerability assessments. Subjects remained confined to the study site through the 72-hour pharmacokinetics sampling, and consumed standard institutional meals while in the study site. Subjects were released after the 72-hour sampling, then returned to the study site on Day 5 before the 96-hour pharmacokinetics sampling: end-of-study procedures were performed immediately hereafter. A blood sample for DNA isolation was collected to allow for genetic analysis as necessary. Diagnosis and Main Criteria for Inclusion: The study was conducted in men and women, aged 18 through 75 years, inclusive. One group of subjects had moderate hepatic impairment, with stable hepatic disease, a total Child-Pugh score of between 7 and 9, inclusive, and blood pressure that was controlled and stable on antihypertensive agents; the other group had normal hepatic function. Test Product, Dose and Mode of Administration, Batch No: 1 mg IR paliperidone (R076477) oral solution; batch 04C29/[…]. Criteria for Evaluation: Pharmacokinetics: Plasma and urine concentrations of the paliperidone enantiomers (+) R078543 and (-) R078544 were determined using an LC-MS/MS method. Concentrations of paliperidone were calculated as the sum of the enantiomer concentrations. In addition, serum and urine concentrations of creatinine were determined for the calculation of CLCR. The protein binding and unbound fraction was determined for the 2 paliperidone enantiomers. The unbound fraction for paliperidone was calculated. Based on the actual pharmacokinetic blood sampling times and actual urine collection periods, the following plasma and urine pharmacokinetic parameters were determined for paliperidone and its enantiomers: Cmax, tmax, tlast, AUClast, λZ, t1/2, AUC∞, % AUC∞,ex, CL/F, AUC∞+/- ratio, Ct+/- ratio per time point, unbound AUC∞, unbound CL/F or unbound CL (if relevant), Ae (per collection interval and overall), Ae,% dose, Excr. Rate, […], and CLNR. Pharmacokinetics: Descriptive statistics were evaluated for the plasma concentrations at each sampling time, and for all pharmacokinetic parameters of paliperidone and its enantiomers for each hepatic function group Graphical exploration of the paliperidone and enantiomer plasma concentrations and urine data, and the derived pharmacokinetic parameters, was performed. In addition, the enantiomer disposition was compared between the groups. Log-transformed PK parameters were fit to a general linear model with hepatic function grip as fixed effect.

[1] = Hepatically-Impaired Subjects, Total
[2] = Hepatically-Impaired Subjects, Unbound
[3] = oral, Healthy Subjects, Unbound
[4] = oral, Hepatically-Impaired Subjects, Total
[5] = oral, Hepatically-Impaired Subjects, Unbound

`Cc1nc2n(c(=O)c1CCN1CCC(c3noc4cc(F)ccc34)CC1)CCCC2O` (centres unmarked) [Paliperidone, paliperidone] gave a CL/F (Healthy Subjects, Total) of 106 ± 34.9 mL/min, a CLNR (Healthy Subjects, Total) of 54.4 ± 23.7 mL/min and a Vdz (Healthy Subjects, Total) of 211 ± 59.6 L. It also gave a CL/F (Healthy Subjects, Unbound) of 370 ± 67.1 mL/min, a CLNR (Healthy Subjects, Unbound) of 188 ± 56.8 mL/min and a Vdz (Healthy Subjects, Unbound) of 748 ± 144 L. The CL/F [1] was 143 ± 43.4 mL/min, the CLNR [1] was 75.1 ± 16.2 mL/min and the Vdz [1] was 311 ± 65.2 L. The CL/F [2] was 386 ± 99.3 mL/min, the CLNR [2] was 205 ± 30.7 mL/min and the Vdz [2] was 857 ± 146 L. The “clearance and volume of distribution between the groups” value (based on unbound concentrations) was “comparable”, the “Active renal clearance as share of the renal clearance” value (both groups) was “approximately 45%” and the “median time to reach maximum plasma concentration” value (both groups) was “around 1 hour”. The CL renal (oral, Healthy Subjects, Total, read-out: CLR) was 51.2 ± 13.4 mL/min, the CL renal (oral, Hepatically-Impaired Subjects, Total, read-out: CLR) was 67.4 ± 34 mL/min and the CL renal (oral, healthy subjects (second value of '67.4 vs. 51.2'), read-out: Renal clearance) was 51.2 mL/min. It also gave a CL renal (oral, hepatically-impaired subjects (first value of '67.4 vs. 51.2'), read-out: Renal clearance) of 67.4 mL/min, an AUC(0-inf) (oral, Healthy Subjects, Total) of 176 ± 64.4 ng·h/mL and a half-life (oral, Healthy Subjects, Total) of 23.6 h. For the same compound, the Tmax (oral, Healthy Subjects, Total) was 1 h, the AUC(0-inf) [3] was 45.8 ± 8.72 ng·h/mL and the Cmax [3] was 1.81 ± 0.292 ng/mL. The Tmax [3] was 1.25 h, the AUC(0-inf) [4] was 128 ± 42.5 ng·h/mL and the Cmax [4] was 4.57 ± 1.05 ng/mL. It also gave a half-life [4] of 26.5 h, a Tmax [4] of 1.25 h and an AUC(0-inf) [5] of 45.7 ± 12.6 ng·h/mL. The Cmax [5] was 1.59 ± 0.318 ng/mL, the Tmax [5] was 1.25 h and the Cmax (po, Healthy Subjects, Total, 1 mg IR oral solution) was 7.14 ± 2.28 ng/mL. For the same compound, the “dose excreted unchanged into urine” value (did not differ between the groups) was “Approximately 50%”, the “CL/F higher in hepatically-impaired compared with healthy subjects” value (total) was “about 35%” and the “volume of distribution higher in hepatically-impaired compared with healthy subjects” value (total Paliperidone) was 47%. For the same compound, the “exposure (Cmax, AUC∞) between hepatic function groups after correction for unbound fraction” value (unbound) was “comparable”, the “AUC∞ lower in hepatically-impaired compared with healthy subjects” value (unbound fraction) was “approximately 5%” and the “Cmax lower in hepatically-impaired compared with healthy subjects” value (unbound fraction) was “approximately 12%”. The “Ae, % dose” value (Healthy Subjects) was 50.1 ± 7.94 % dose and the “Ae, % dose” value (Hepatically-Impaired Subjects) was 44.7 ± 10.62 % dose.
